In patent publication US20120022121A1, “INDOLES, DERIVATIVES AND ANALOGS THEREOF AND USES THEREFOR” (priority 2007, published 2012):

Experiments:
[1] = system: DU-145; experiment: Cell viability SRB assay, 96 h; assay type: cell-based; details: Homo sapiens, DU-145, 96 h
Method: (§1) Cell viability (LNCaP, PC-3 prostate, DU145, PPC-1, and TSU-Pr1 prostate cancer cell lines, HT-29 colon cancer cell line, and MCF-7 breast cancer cell line) was quantitated using the sulforhodamine B (SRB) assay after 96 h coincubation with different concentrations of compound in 96-well plates. Cell viability of leukemia cells (K562 and doxorubicin-resistant K562/Dox) was quantitated by MTT assay after 96 h coincubation with different concentrations of compound in 96-well plates. Drug-induced apoptosis was determined by anti-histone ELISA assay and DNA laddering. Cell cycle progression was assessed by propidium iodide staining and fluorescence-activated cell sorting (FACS) analysis. In vitro tubulin polymerization assay was determined by CytoDYNAMIX ScreenTM3 (CDS-03) kits according to the manufacturer's instructions. Anti-apoptosis protein (Bcl-2 and Bcl-xl) and pro-apoptosis protein (Bax) were examined in LNCaP and PC-3 after 24 h incubation with different concentrations of compound 13 by Western blot assay. In vivo PC-3 xenograft studies were conducted by i.v. dosing of 50 mg/kg, 100 mg/kg and 150 mg/kg for 2 weeks.
(§2) Cells were plated in 96-well plates at a density of 800-5,000 cells/well, depending on the cell line, in their required growth media containing 10% fetal bovine serum. Preliminary studies were performed with each cell line using a variety of cell densities and incubation times to determine appropriate seeding densities. The compound of interest was dissolved in DMSO, diluted in cell culture medium (final DMSO concentration was less than 0.5% v/v), and added to quadruplicate wells at final concentrations ranging from 0 to 100 μM. Control wells to which only drug-free vehicle was added were included as negative controls.
(§3) Cells were incubated for 96 hour at 37° C. in a humidified atmosphere containing 5% carbon dioxide.
(§4) Cells were stained with SRB solution. […] WinNonlin was provided by a Pharsight Academic License to The Ohio State University.

[2] = system: HT-29; experiment: Cell viability SRB assay, 96 h; assay type: cell-based; details: Homo sapiens, HT-29, 96 h
Method: as §1, §2, §3, §4

[3] = system: LNCaP; experiment: Cell viability SRB assay, 96 h; assay type: cell-based; details: Homo sapiens
Method: as §1, §2, §3, §4

[4] = system: MCF-7; experiment: Cell viability SRB assay, 96 h; assay type: cell-based; details: Homo sapiens, MCF7; MCF-7, 96 h
Method: as §1, §2, §3, §4

[5] = system: PC-3; experiment: Cell viability SRB assay, 96 h; assay type: cell-based; details: Homo sapiens, PC-3, 96 h
Method: as §1, §2, §3, §4

[6] = system: PPC-1; experiment: Cell viability SRB assay, 96 h; assay type: cell-based; details: Homo sapiens, PPC-1, 96 h
Method: as §1, §2, §3, §4

[7] = system: TSU; experiment: Cell viability SRB assay, 96 h; assay type: cell-based; details: Homo sapiens, TSU (TSU-Pr1)
Method: as §1, §2, §3, §4

[8] = system: A375; experiment: Cytotoxicity assay (SRB, 48 h); assay type: cell-based, human; details: A375 melanoma
[9] = system: WM164; experiment: Cytotoxicity assay (SRB, 48 h); assay type: cell-based, human; details: WM164 melanoma
[10] = system: LNCaP; experiment: Cytotoxicity assay (SRB, 96 h); assay type: cell-based; details: Homo sapiens
[11] = system: PC-3; experiment: Cytotoxicity assay (SRB, 96 h); assay type: cell-based; details: Homo sapiens, PC-3, 96 h
[12] = system: Du 145; experiment: Cytotoxicity assay (SRB, 96 h); assay type: cell-based; details: Homo sapiens; Du 145, 96 h
[13] = system: PPC-1; experiment: Cytotoxicity assay (SRB, 96 h); assay type: cell-based; details: Homo sapiens, PPC-1, 96 h
[14] = system: melanoma and prostate cancer cell lines; experiment: Cytotoxicity assay (SRB), summary over the cell lines of Table 3; assay type: cell-based; details: Homo sapiens
[15] = system: CV-1; experiment: Cell viability SRB assay, 96 h; assay type: cell-based; details: Cercopithecidae, CV-1 fibroblast cell line
Method: as §2, §3

[16] = Rotarod performance; assay type: in vivo, ICR mice; details: 0.5 mg/kg i.p. q2d
Method: The training and rotarod test was conducted as described previously. Briefly, during the training phase for 2 consecutive days (3 trials/day), mice (10 mice/group) were trained to run in a rotarod apparatus without falling at a constant speed (12 rpm) for a maximum of 2 min. For the rotarod performance test, duration of each trial was less than 5 min. […] Tests were performed for 2 weeks (2 days/week). The animals were tested in three trials per day with an intertrial interval of 30 min. Animal performance was recorded as the average elapsed time for the mice to fall off.

IC50 [1]	IC50 [3]	IC50 [5]	melting point	Compound	IC50 [6]	IC50 [7]	IC50 [10]	IC50 [11]	IC50 [12]	IC50 [13]	IC50 [14]	IC50 [15]	also measured
–	–	–	207 to 209 °C	COc1cc(C(=O)c2cc3ccc(Cl)cc3[nH]2)cc(OC)c1OC [Compound 112, (6-Chloro-1H-indol-2-yl)(3,4,5-trimethoxyphenyl)methanone]	–	–	> 10 µM	> 10 µM	> 10 µM	> 10 µM	> 10 µM	–	IC50 ([8]; Homo sapiens, A-375, 48 h): > 10 µM; IC50 ([9]; Homo sapiens, WM164, 48 h): > 10 µM
–	–	–	144 to 146 °C	COc1cc(C(=O)c2nc3ccccc3s2)cc(OC)c1OC [Compound 123a, Benzo[d]thiazol-2-yl(3,4,5-trimethoxyphenyl)methanone]	–	–	> 10 µM	> 10 µM	> 10 µM	> 10 µM	> 10 µM	–	IC50 ([8]; Homo sapiens, A-375, 48 h): > 10 µM; IC50 ([9]; Homo sapiens, WM164, 48 h): > 10 µM
55.1 ± 2.5 µM	18.3 ± 1.4 µM	59.9 ± 1.8 µM	–	O=S(=O)(c1ccccc1)n1cc(B(O)O)c2ccccc21 [Compound 129, reference compound]	41.1 ± 1.8 µM	39.3 ± 1.6 µM	–	–	–	–	–	> 100 µM	–
0.028 µM	0.032 µM	0.031 ± 0.004 µM	–	COc1cc(C(=O)c2cccc(-c3cc4cc(F)ccc4[nH]3)c2)cc(OC)c1OC [Compound 90, [3-(5-Fluoro-1H-indol-2-yl)-phenyl]-(3,4,5-trimethoxy-phenyl)-methanone]	0.028 µM	–	–	–	–	–	–	–	IC50 [4]: 39 nM
–	–	–	50 to 52 °C	COc1cc(C(O)(c2nc3ccccc3s2)c2nc3ccccc3s2)cc(OC)c1OC [Compound 127, Bis(benzo[d]thiazol-2-yl)(3,4,5-trimethoxyphenyl)methanol]	–	–	> 10 µM	> 10 µM	> 10 µM	> 10 µM	> 10 µM	–	IC50 ([8]; Homo sapiens, A-375, 48 h): > 10 µM; IC50 ([9]; Homo sapiens, WM164, 48 h): > 10 µM
–	–	–	191 to 193 °C	COc1cc(C(=O)c2nc3ccccc3[nH]2)cc(OC)c1OC [Compound 118, (1H-benzo[d]imidazol-2-yl)(3,4,5-trimethoxyphenyl)methanone]	–	–	> 10 µM	> 10 µM	> 10 µM	> 10 µM	> 10 µM	–	IC50 ([8]; Homo sapiens, A-375, 48 h): > 10 µM; IC50 ([9]; Homo sapiens, WM164, 48 h): > 10 µM
–	–	–	252 to 254 °C	COc1cc(C(=O)c2cc3cc(Cl)ccc3[nH]2)cc(OC)c1OC [Compound 115, (5-Chloro-1H-indol-2-yl)(3,4,5-trimethoxyphenyl)methanone]	–	–	> 10 µM	> 10 µM	> 10 µM	> 10 µM	1 to 10 µM	–	IC50 [8]: 1.47 µM; IC50 [9]: 2.16 µM
39.7 ± 2.6 µM	5.8 ± 0.5 µM	39.4 ± 1.7 µM	–	c1ccc2c(Cc3c[nH]c4ccccc34)c[nH]c2c1 [Compound 128, di(1H-indol-3-yl)methane, reference compound]	31.8 ± 1.1 µM	45.7 ± 1.1 µM	–	–	–	–	–	> 100 µM	–
–	–	–	89 to 91 °C	COc1cc(C(=O)c2nc3ccccc3o2)cc(OC)c1OC [Compound 123b, Benzo[d]oxazol-2-yl(3,4,5-trimethoxyphenyl)methanone]	–	–	> 10 µM	> 10 µM	> 10 µM	> 10 µM	> 10 µM	–	IC50 ([8]; Homo sapiens, A-375, 48 h): > 10 µM; IC50 ([9]; Homo sapiens, WM164, 48 h): > 10 µM

The next lines start with the molecule.

Compound	IC50 [1]	IC50 [3]	IC50 [5]	melting point	IC50 [6]	IC50 [7]	IC50 [10]	IC50 [11]	IC50 [12]	IC50 [13]	IC50 [14]	IC50 [15]	also measured
COc1ccc(C(=O)c2cccc(-c3cc4ccccc4[nH]3)c2)cc1OC [Compound 83, (3,4-Dimethoxy-phenyl)-[3-(1H-indol-2-yl)-phenyl]-methanone]	0.131 µM	0.051 µM	0.069 ± 0.012 µM	–	0.04 µM	0.044 µM	–	–	–	–	–	–	IC50 [2]: 119 nM; IC50 [4]: 43 nM
O=S(=O)(c1ccccc1)n1c(-c2cccc(C(O)c3cc4ccccc4n3S(=O)(=O)c3ccccc3)c2)cc2ccccc21 (stereo not drawn) [Compound 8, (1-benzenesulfonyl-1H-indol-2-yl)-[3-(1-benzenesulfonyl-1H-indol-2-yl)phenyl]methanol]	> 100 µM	> 100 µM	> 100 µM	81 to 83 °C	30 µM	> 100 µM	–	–	–	–	–	> 100 µM	–
c1cc(Cc2cc3ccccc3[nH]2)cc(-c2cc3ccccc3[nH]2)c1 [Compound 10, (1H-Indol-2-yl)-[3-(1H-indol-2-yl)phenyl]methane]	18.4 µM	> 50 µM	> 50 µM	193 to 194 °C	> 50 µM	20 to 50 µM	–	–	–	–	–	> 50 µM	IC50 [2]: 720 nM
O=Cc1cccc(-c2cc3ccccc3n2S(=O)(=O)c2ccccc2)c1 [Compound 5]	19.7 ± 1.3 µM	17.7 ± 1.2 µM	23.2 ± 1.4 µM	126 to 138 °C	13.9 ± 0.2 µM	11.5 ± 0.1 µM	–	–	–	–	–	> 100 µM	–
O=C(c1cccc(-c2cc3ccccc3n2S(=O)(=O)c2ccccc2)c1)c1cc2ccccc2n1S(=O)(=O)c1ccccc1 [Compound 12, (1-Benzenesulfonyl-1H-indol-2-yl)-[3-(1-benzenesulfonyl-1H-indol-2-yl)phenyl]methanone]	> 100 µM	> 100 µM	> 100 µM	189 to 190 °C	> 100 µM	> 100 µM	–	–	–	–	–	> 100 µM	–
COc1cc(OC)cc(C(=O)c2cccc(-c3cc4ccccc4[nH]3)c2)c1 [Compound 82, (3,5-Dimethoxy-phenyl)-[3-(1H-indol-2-yl)-phenyl]-methanone]	0.134 µM	0.082 µM	0.075 ± 0.016 µM	–	0.069 µM	0.065 µM	–	–	–	–	–	–	IC50 [2]: 92 nM; IC50 [4]: 54 nM
O=S(=O)(c1ccccc1)n1c(Br)cc2ccccc21 [Compound 3, 2-bromo-1-(benzenesulfonyl)indole]	63.9 ± 1.9 µM	29.6 ± 2.2 µM	69.3 ± 2.1 µM	–	52.1 ± 1.1 µM	44.9 ± 2 µM	–	–	–	–	–	> 100 µM	–
O=S(=O)(c1ccccc1)n1c(B(O)O)cc2ccccc21 [Compound 7, 1-(phenylsulfonyl)-1H-indol-2-yl-boronic acid, reference compound]	72 ± 3.4 µM	23.1 ± 4 µM	73.9 ± 7.1 µM	–	80.8 ± 1.2 µM	48.2 ± 3.4 µM	–	–	–	–	–	> 100 µM	–
CC[C@]1(O)C[C@H]2CN(CCc3c([nH]c4ccccc34)[C@@](C(=O)OC)(c3cc4c(cc3OC)N(C=O)[C@H]3[C@@](O)(C(=O)OC)[C@H](OC(C)=O)[C@]5(CC)C=CCN6CC[C@]43[C@@H]65)C2)C1 [vincristine]	–	–	–	–	–	–	–	–	–	–	–	–	rotarod performance ([16]; day 4 to day 14): impaired performance; mean time on the rotating rod ([16]; end of 2 weeks (vehicle 151 s)): 104 s
COc1cccc(C(=O)c2cccc(-c3cc4ccccc4[nH]3)c2)c1 [Compound 81, [3-(1H-Indol-2-yl)-phenyl]-(3-methoxy-phenyl)-methanone]	0.129 µM	0.047 µM	0.072 ± 0.013 µM	–	0.043 µM	0.042 µM	–	–	–	–	–	–	IC50 [2]: 100 nM; IC50 [4]: 43 nM
